One block for each compound: values may come before it.
Legend:
[1] = tested on: Platelet Aggregation Induced by PAF (platelet rich plasma); assay: Inhibition of Platelet Aggregation Induced by PAF; type: cell-based, male New Zealand rabbits; details: rabbit platelet rich plasma, aggregation induced by C18-PAF (15 nM)
Experimental: Inhibition of Platelet Aggregation Induced by PAF.
Platelet rich plasma (PRP) was prepared by centrifuging the blood at 250 xg for 10 min. at 4° C. The PRP was diluted with platelet-poor plasma (PPP) obtained by further centrifuging at 3000 xg for 10 min. The platelet count was adjusted to 3×10^5cells/mm^3.

PAF-induced Hypotension = assay: Inhibition of PAF-induced Hypotension in Normotensive Rats; type: in vivo, male Sprague-Dawley rats; details: anesthetized normotensive rats, i.v. 3 min. before PAF (0.5 μg/Kg), dose inhibiting hypotension by 50%; for ED50: Rattus norvegicus, iv, 0.05 h, read-out: ID50 (the source's name)
Experimental: Inhibition of PAF-induced Hypotension in Normotensive Rats.
Male Sprague-Dawley rats, weighing 180-220 g, were anesthetized with sodium pentobarbital (50 mg/Kg i.p.). Blood pressure was recorded from the left carotid artery using a Statham pressure transducer coupled to a Beckman R611 recorder. Right and left fernoral veins were catheterized to inject test compounds and PAF (0.5 μg/Kg). Test compounds were administered by intravenous injection (1 mL/Kg, dissolved in saline) 3 min. before PAF. Blood pressure was monitored and percent inhibition of PAF-induced hypotension with respect to controls was calculated.

SMILES: Cc1nc2cnccc2n1CC1CCN(C(=O)C=C(c2ccccc2)c2ccc([N+](=O)[O-])cc2)CC1 [Compound 16, cis and trans-1-[[1-[3-(4-Nitrophenyl)-3-phenylpropenoyl]-4-piperidyl]methyl]-1H-2-methylimidazo[4,5-c]pyridine]
IC50 ([1]; Oryctolagus cuniculus): 9.2 nM

SMILES: Cc1nc2cnccc2n1CC1CCN(C(=O)/C=C(/c2ccccc2)c2ccc(N)cc2)CC1 [Compound 17a, cis-1-[[1-[3-(4-Aminophenyl)-3-phenylpropenoyl]-4-piperidyl]methyl]-1H-2-methylimidazo[4,5-c]pyridine]
IC50 [1]: 18 nM
ID50 (PAF-induced Hypotension): 0.029 mg/kg

SMILES: Cc1nc2cnccc2n1CC1CCN(C(=O)/C=C(\c2ccccc2)c2ccc(N)cc2)CC1 [Compound 17b, trans-1-[[1-[3-(4-Aminophenyl)-3-phenylpropenoyl]-4-piperidyl]methyl]-1H-2-methylimidazo[4,5-c]pyridine]
IC50 [1]: 5 nM
ID50 (PAF-induced Hypotension): 0.01 to 0.025 mg/kg

SMILES: Cc1nc2cnccc2n1CC1CCN(C(=O)C=C(c2ccccc2)c2cccc(N)c2)CC1 [Compound 30, cis and trans-1-[[1-[3-(3-Aminophenyl)-3-phenylpropenoyl]-4-piperidyl]methyl]-1H-2-methylimidazo[4,5-c]pyridine]
ED50 (PAF-induced Hypotension): 0.015 mg/kg

SMILES: Cc1nc2cnccc2n1CC1CCN(C(=O)CC(O)(c2ccccc2)C(F)(F)F)CC1 (stereo not drawn) [Compound 47]
IC50 ([1]; Oryctolagus cuniculus): 36 nM
ED50 (PAF-induced Hypotension): 0.013 mg/kg

SMILES: Cc1nc2cnccc2n1CC1CCN(C(=O)NC2(c3ccccc3)CC2)CC1 [Compound 59, 1-[[1-[(1-Phenyl-1-cyclopropylamino)carbonyl]-4-piperidyl]methyl]-1H-2-methylimidazo[4,5-c]pyridine]
IC50 ([1]; Oryctolagus cuniculus): 17 nM
ED50 (PAF-induced Hypotension): 0.021 mg/kg

SMILES: Cc1nc2cnccc2n1CC1CCN(S(=O)(=O)CC(C)(C)c2ccccc2)CC1 [Compound 61, 1-[[1-[(2-Methyl-2-phenylpropyl)sulfonyl]-4-piperidyl]methyl]-1H-2-methylimidazo[4,5-c]pyridine]
IC50 ([1]; Oryctolagus cuniculus): 6.2 nM

Second part, led by results:

IC50 ([1]; Oryctolagus cuniculus): 7.6 nM
SMILES: Cc1nc2cnccc2n1CC1CCN(C(=O)CC(c2ccccc2)c2ccccc2)CC1 [Compound 1, 1-[[1-(3,3-Diphenylpropionyl)-4-piperidyl]methyl]-1H-2-methylimidazo[4,5-c]pyridine]
ED50 (PAF-induced Hypotension): 0.0086 mg/kg

IC50 ([1]; Oryctolagus cuniculus): 6.9 nM
SMILES: Cc1nc2cnccc2n1CC1CCN(C(=O)CC(C)(O)c2ccccc2)CC1 (stereo not drawn) [Compound 21, 1-[[1-(3-Hydroxy-3-phenylbutanoyl)-4-piperidyl]methyl]-1H-2-methylimidazo[4,5-c]pyridine]
ED50 (PAF-induced Hypotension): 0.043 mg/kg

IC50 ([1]; Oryctolagus cuniculus): 11 nM
SMILES: Cc1nc2cnccc2n1CC1CCN(C(=O)CC(C)c2ccc(N)cc2)CC1 (stereo not drawn) [Compound 23, 1-[[1-[3-(4-Aminophenyl)butanoyl]-4-piperidyl]methyl]-1H-2-methylimidazo[4,5-c]pyridine]

IC50 ([1]; Oryctolagus cuniculus): 11 nM
SMILES: CCCC(CC(=O)N1CCC(Cn2c(C)nc3cnccc32)CC1)c1ccccc1 (stereo not drawn) [Compound 32, 1-[[1-(3-Phenylhexanoyl)-4-piperidyl]methyl]-1H-2-methylimidazo[4,5-c]pyridine]
ED50 (PAF-induced Hypotension): 0.0079 mg/kg

IC50 ([1]; Oryctolagus cuniculus): 16 nM
SMILES: CCOC(=O)[C@@H](NC(=O)N1CCC(Cn2c(C)nc3cnccc32)CC1)c1ccccc1 [Compound 39, (S)-1-[[1-[[N-(1-Ethoxycarbonyl-1-phenylmethyl)amino]carbonyl]-4-piperidyl]methyl]-1H-2-methylimidazo[4,5-c]pyridine]

IC50 ([1]; Oryctolagus cuniculus): 12 nM
SMILES: Cc1nc2cnccc2n1CC1CCN(C(=O)CC(C)c2ccccc2)CC1 (stereo not drawn) [Compound 40, 1-[[1-(3-Phenylbutanoyl)-4-piperidyl]methyl]-1H-2-methylimidazo[4,5-c]pyridine]
ED50 (PAF-induced Hypotension): 0.033 mg/kg

IC50 ([1]; Oryctolagus cuniculus): 6.7 nM
SMILES: Cc1nc2cnccc2n1CC1CCN(C(=O)CC(C)(C)c2ccccc2)CC1 [Compound 41, 1-[[1-(3-Methyl-3-phenylbutanoyl)-4-piperidyl]methyl]-1H-2-methylimidazo[4,5-c]pyridine]
ED50 (PAF-induced Hypotension): 0.012 mg/kg

IC50 ([1]; Oryctolagus cuniculus): 19 nM
SMILES: Cc1nc2cnccc2n1CC1CCN(C(=O)CC(C)(C)c2ccc(N)cc2)CC1 [Compound 44, 1-[[1-[3-(4-Aminophenyl)-3-methylbutanoyl]-4-piperidyl]methyl]-1H-2-methylimidazo[4,5-c]pyridine]

IC50 ([1]; Oryctolagus cuniculus): 13 nM
SMILES: Cc1nc2cnccc2n1CC1CCN(C(=O)N[C@H](C)c2ccccc2)CC1 [Compound 50, (R)-1-[[1-[(1-Phenylethylamino)carbonyl]-4-piperidyl]methyl]-1H-2-methylimidazo[4,5-c]pyridine]
ED50 (PAF-induced Hypotension): 0.017 mg/kg

IC50 ([1]; Oryctolagus cuniculus): 17 nM
SMILES: CCOC[C@@H](NC(=O)N1CCC(Cn2c(C)nc3cnccc32)CC1)c1ccccc1 [Compound 60, (S)-1-[[1-[(2-Ethoxy-1-phenylethylamino)carbonyl]-4opiperidyl]methyl]-1H-2-methylimidazo[4,5-c]pyridine]
ED50 (PAF-induced Hypotension): 0.019 mg/kg

IC50 ([1]; Oryctolagus cuniculus): 34 nM
SMILES: Cc1nc2cnccc2n1CC1CCN(C(=O)OCC2(c3ccccc3)CC2)CC1 [Compound 70, 1-[[1-[[(1-Phenyl-1-cyclopropyl)methoxy]carbonyl]-4-piperidyl]methyl]-1H-2-methylimidazo[4,5-c]pyridine]
ED50 (PAF-induced Hypotension): 0.014 mg/kg
